Several values for one entry are separate records, joined by “and”; a condition that tells them apart may be missing. Equal values may be shown once.

The test system of experiment [1] is voltage-gated calcium currents in IMR-32 cells. The class given is cell-based, human.
Experiment [2] has as its system rat tail-flick latency to heat stimulus. To be noted: in vivo.
Experiment [3] deals with potassium-stimulated acetylcholine release from striatal slices. The settings on record: 1 µM.
Experiment [4] concerns potassium-stimulated dopamine release from striatal slices. In kind it is cell-based, rat. To be noted: 1 µM.
Experiment [5] has as its target N-type or omega HVA neuronal calcium channels; calcium currents in N1E-115 neuroblastoma cells (Mus musculus, UniProt O55017). In kind it is cell-based.

Chain of N-type or omega HVA neuronal calcium channels; calcium currents in N1E-115 neuroblastoma cells (O55017 whole entry): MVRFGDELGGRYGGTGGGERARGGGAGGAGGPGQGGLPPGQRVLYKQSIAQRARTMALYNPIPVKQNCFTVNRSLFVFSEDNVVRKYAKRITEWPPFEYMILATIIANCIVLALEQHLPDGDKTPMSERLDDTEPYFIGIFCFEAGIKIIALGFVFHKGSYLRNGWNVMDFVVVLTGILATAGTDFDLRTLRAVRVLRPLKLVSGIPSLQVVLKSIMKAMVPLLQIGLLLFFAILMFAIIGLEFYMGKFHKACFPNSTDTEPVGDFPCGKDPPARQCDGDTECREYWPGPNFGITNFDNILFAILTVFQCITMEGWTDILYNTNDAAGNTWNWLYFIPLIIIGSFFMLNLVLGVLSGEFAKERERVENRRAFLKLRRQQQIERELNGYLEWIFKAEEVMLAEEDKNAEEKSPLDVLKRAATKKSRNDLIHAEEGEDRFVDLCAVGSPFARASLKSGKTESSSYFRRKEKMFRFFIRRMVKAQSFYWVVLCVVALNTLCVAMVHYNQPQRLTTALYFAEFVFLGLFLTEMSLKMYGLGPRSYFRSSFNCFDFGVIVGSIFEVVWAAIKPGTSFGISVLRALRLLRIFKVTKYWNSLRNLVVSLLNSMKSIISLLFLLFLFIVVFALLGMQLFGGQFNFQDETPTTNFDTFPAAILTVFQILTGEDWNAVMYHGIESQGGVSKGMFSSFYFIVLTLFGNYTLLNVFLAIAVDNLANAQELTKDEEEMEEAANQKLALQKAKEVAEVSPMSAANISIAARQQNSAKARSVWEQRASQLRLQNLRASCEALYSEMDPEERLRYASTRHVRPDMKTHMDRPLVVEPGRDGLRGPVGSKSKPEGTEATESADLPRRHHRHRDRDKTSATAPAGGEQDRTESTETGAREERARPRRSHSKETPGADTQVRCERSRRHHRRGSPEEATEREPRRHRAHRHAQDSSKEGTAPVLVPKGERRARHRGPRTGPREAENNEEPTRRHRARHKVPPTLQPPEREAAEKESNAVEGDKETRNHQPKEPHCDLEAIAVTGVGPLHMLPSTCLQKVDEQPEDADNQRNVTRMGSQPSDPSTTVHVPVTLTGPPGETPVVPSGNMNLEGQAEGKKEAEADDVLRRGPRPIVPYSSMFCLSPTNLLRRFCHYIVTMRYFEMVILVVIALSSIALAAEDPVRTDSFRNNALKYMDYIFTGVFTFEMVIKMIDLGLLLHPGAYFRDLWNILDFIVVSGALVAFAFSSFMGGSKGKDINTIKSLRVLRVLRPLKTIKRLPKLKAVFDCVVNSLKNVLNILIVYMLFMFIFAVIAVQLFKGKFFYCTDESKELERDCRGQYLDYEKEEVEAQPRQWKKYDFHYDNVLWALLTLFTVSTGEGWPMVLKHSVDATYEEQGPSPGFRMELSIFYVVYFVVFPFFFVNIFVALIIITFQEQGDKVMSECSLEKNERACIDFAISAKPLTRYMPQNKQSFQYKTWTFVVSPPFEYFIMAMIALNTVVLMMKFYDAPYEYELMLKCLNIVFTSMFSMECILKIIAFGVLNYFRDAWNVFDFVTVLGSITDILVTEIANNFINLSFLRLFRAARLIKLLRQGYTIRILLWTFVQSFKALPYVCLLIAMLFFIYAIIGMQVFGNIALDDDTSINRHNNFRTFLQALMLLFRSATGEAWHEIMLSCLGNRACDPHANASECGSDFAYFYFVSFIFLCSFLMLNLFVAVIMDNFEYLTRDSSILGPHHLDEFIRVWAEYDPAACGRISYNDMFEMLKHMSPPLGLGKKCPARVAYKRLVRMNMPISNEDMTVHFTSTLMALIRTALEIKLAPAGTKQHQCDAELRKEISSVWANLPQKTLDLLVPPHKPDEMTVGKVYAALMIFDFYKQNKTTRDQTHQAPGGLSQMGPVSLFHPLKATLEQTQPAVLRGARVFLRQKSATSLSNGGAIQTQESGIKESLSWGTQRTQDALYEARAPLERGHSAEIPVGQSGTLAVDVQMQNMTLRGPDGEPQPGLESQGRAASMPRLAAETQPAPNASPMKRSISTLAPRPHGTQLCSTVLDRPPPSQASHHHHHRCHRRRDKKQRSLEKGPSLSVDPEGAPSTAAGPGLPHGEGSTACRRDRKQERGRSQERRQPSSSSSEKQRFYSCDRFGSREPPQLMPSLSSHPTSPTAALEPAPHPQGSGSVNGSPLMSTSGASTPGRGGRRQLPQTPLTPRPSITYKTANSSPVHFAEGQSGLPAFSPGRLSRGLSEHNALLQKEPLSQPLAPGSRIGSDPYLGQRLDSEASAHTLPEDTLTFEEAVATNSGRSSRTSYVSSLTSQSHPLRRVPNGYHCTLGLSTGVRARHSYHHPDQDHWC
Chain of N-type or omega HVA neuronal calcium channels; calcium currents in N1E-115 neuroblastoma cells (O08532 25-956 partner limits assumed): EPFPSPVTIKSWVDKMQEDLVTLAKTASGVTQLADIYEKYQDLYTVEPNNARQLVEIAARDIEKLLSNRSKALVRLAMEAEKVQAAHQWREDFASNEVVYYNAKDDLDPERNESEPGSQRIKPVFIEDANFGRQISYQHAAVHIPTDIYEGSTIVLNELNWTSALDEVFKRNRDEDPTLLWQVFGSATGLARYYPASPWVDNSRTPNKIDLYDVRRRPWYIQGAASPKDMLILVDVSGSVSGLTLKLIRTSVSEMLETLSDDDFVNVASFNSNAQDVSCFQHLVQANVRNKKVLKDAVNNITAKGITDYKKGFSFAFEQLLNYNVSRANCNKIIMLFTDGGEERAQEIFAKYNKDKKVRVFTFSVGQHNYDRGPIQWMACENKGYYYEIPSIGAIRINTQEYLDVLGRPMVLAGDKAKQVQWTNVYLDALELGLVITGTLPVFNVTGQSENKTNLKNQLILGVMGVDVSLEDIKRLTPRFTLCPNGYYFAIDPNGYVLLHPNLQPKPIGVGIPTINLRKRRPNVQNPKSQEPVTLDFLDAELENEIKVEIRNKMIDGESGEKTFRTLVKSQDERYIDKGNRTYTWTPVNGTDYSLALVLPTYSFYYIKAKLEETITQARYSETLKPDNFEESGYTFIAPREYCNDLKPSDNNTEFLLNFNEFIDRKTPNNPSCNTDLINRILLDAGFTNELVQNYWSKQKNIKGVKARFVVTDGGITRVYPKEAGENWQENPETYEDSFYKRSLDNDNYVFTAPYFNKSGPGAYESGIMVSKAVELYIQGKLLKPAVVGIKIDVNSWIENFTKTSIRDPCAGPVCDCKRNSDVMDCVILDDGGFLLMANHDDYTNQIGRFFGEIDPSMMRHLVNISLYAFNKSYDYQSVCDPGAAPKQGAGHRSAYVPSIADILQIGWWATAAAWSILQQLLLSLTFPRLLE
Chain of N-type or omega HVA neuronal calcium channels; calcium currents in N1E-115 neuroblastoma cells (O08532 957-1103 partner limits assumed): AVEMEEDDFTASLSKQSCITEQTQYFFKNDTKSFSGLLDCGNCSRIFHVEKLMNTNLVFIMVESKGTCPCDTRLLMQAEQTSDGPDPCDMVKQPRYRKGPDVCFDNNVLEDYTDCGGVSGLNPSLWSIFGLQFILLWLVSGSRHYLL

On to cadmium, for which the “effect of addition to the medium on remaining voltage-gated calcium currents” value in experiment [1] was “blockade of all remaining voltage-gated calcium currents”.
Regarding `CN1CC[C@]23c4c5ccc(O)c4O[C@H]2[C@@H](O)C=C[C@H]3[C@H]1C5` [Morphine, morphine], in experiment [2], the “Analgesia (% Effect), mean MPE” value turned out to be 23; the “Latency Percent Effect, mean” value was 17 and 19 and 18; the “Latency Percent Effect, mean MPE” value is 26.
For amiodipine, the “% inhibition of [3H]acetylcholine release” value in experiment [3] stood at 0. The “% inhibition of [3H]dopamine release” value in experiment [4] worked out at 0.
For `COC(=O)C1=C(C)NC(C)=C(C(=O)OC)C1c1ccccc1[N+](=O)[O-]` [nifedipine], the “effect on the measured calcium current” value in experiment [5] was “no effect”.

(Values after US5364842A (priority 1993, dated 1994).)
